# Where two headings read alike, the source gives them in different places.
# How the values were obtained:
# [1] = test system: liver fibrosis induced by porcine serum; assay: Liver fibrosis induced by 8-week porcine serum administration to rats: 6-ECDCA, rosiglitazone and combination; assay type: in vivo, rat; conditions: for ALP / ALT / Bilirubin / Liver/b.w.: porcine serum rats, 8 weeks, mean ± SE
# Procedure: To investigate whether 6-ECDCA was effective in regulating PPARγ expression, porcine serum-administered rats (6-8 each group) were randomized to receive 1 and 3 mg/kg 6-ECDCA via gavage 5 times a week. Control rats were administered 3% carboxy-methyl cellulose (CMC) by gavage. At the end of the study, rats were sacrificed under anaesthesia with sodium pentobarbital (50 mg/kg, i.p.) and terminally bled via cardiac puncture. The liver was removed for examination and blood samples were taken.
# Groups and duration of treatment are described in Table 1 below. Animals were followed for 8 weeks.
# Collagen surface density was quantified using a computerized image analysis system (Image Acquisition System Ver. 005, Delta Sistemi, Rome, Italy) (see Fiorucci et al., supra). Hepatic and urinary content of hydroxyproline were determined by HPLC (LC Varian Prostar HPLC, Varian, Rome, Italy) as described in Fiorucci et al. (supra). The ANOVA followed by Dunnett or Bonferroni correction for multiple comparison were applied when appropriate during statistical analysis. EC50 were calculated using Prism III (Graphpad Software. Inc., San Diego, Calif.).
# [2] = test system: liver fibrosis; assay: Gene expression in three rat models of liver fibrosis (porcine serum, BDL, CCl4) treated with FXR ligand; assay type: in vivo; conditions: rats, 3 mg/kg
# Procedure: In order to further investigate whether in vivo administration of FXR ligands would modulate the expression of PPARγ, three different models of liver fibrosis were used, i.e., porcine serum administration, bile duct ligation (BDL), and CCL4 intoxication. Male Wistar rats (200-250 g) were obtained from Charles River Breeding Laboratories (Monza, Italy) and maintained on standard laboratory rat chow on a 12 hour light/dark cycle. […] (2004) Gastroenterology 14:1444-1356). […] At the end of the study, rats were sacrificed under anaesthesia with sodium pentobarbital (50 mg/kg, i.p.) and terminally bled via cardiac puncture. The liver was removed for examination and blood samples were taken. In the second model, hepatic fibrosis was induced by bile duct ligation (BDL) of 8-9 weeks old male Wistar rats (see Fiorucci et al. (2004) Gastroenterology 14:1444-1356 and Fiorucci et al. (2004) Hepatology 39:365-75). Sham operated rats (n=6) received the same laparoscopic procedure, except that the bile duct was manipulated, but not ligated and sectioned. A total of 24 animals were operated. […] Animals were then treated for 14 days. […] Control rats were injected i.p. with 100 μl/100 g body weight of paraffin oil alone.
# [3] = test system: primary cultures of rat HSCs; assay: PPARγ expression in primary cultures of rat HSCs with FXR ligands (qRT-PCR, Western blot); assay type: cell-based
# Procedure: However, whether or not FXR interacts with PPARγ, has so far been unknown. In order to investigate if FXR interacts with PPARγ, in vitro studies were performed on primary cultures of rat HSCs and HSC-T6 (i.e., a rat immortalised HSCs line). Primary rat HSCs were isolated from control and cirrhotic rats according to techniques known in the art. […] Cells were cultured at 37° C. in an atmosphere of 5% CO2 in Dulbecco's modified minimal essential medium (Gibco BRL Life Technologies, Rockville, Md.) containing 10% fetal calf serum (FCS), 2 mM L-glutamine, and 5,000 IU/ml penicillin/[…] streptomycin. […] HSCs were incubated with or without 6-ECDCA, 1 μM, for 24 hours at 37° C. in DMEM. […] The proteins were then transferred to nitrocellulose membranes (Biorad, Hercules, Calif.) and probed with primary antibodies to FXR and PPARγ (Santa Cruz Biotechnology, Santa Cruz, Calif.).
# PPARγ expression normally decreases during HSC trans-differentiation. […] To further investigate whether ligands of FXR and PPARγ might cooperate in repressing α1 (1) collagen gene expression, HSC-T6 were exposed to effective concentrations of the two ligands.
# [4] = cited from earlier work
# [5] = Type II diabetic obese patient switched from rosiglitazone to 6ECDCA plus rosiglitazone; assay type: in vivo, human; conditions: rosiglitazone 8 mg daily 4 weeks then 4 mg daily 6 weeks by mouth
# Procedure: The patient is started on a combination of 6ECDCA (150 mg) and rosiglitizone (2 mg) daily by mouth.
smiles,measurement,setting,value
CC[C@H]1[C@@H](O)[C@@H]2[C@H](CC[C@]3(C)[C@@H]([C@H](C)CCC(=O)O)CC[C@@H]23)[C@@]2(C)CC[C@@H](O)C[C@@H]12 [6-ECDCA],"expression of selected pro-fibrogenetic markers (α-SMA, fibronectin, TGFP1)",[1]; 1 mg/kg,reduced
same,histological score and liver hydroxyproline content,"[1]; 1 mg/kg, in comparison to porcine serum alone",slightly reduced
same,protection against development of liver fibrosis,[1]; 3 mg/kg,effectively protected
same,increase of liver PPARγ mRNA,[1]; 3 mg/kg alone,3-4 fold
same,increase of hepatic expression of UCP-2,"[1]; 3 mg/kg, P<0.05 versus control and porcine serum alone",2-4 fold
same,"liver function as measured by plasma ALT, alkaline phosphatase and bilirubin","[1]; 1 and 3 mg/kg, P>0.05 versus control and porcine serum-treated rats",did not affect liver function
same,ALP,[1]; oral 1 mg/kg (each drug),26.6 ± 2.5 U/dl
same,ALT,[1]; oral 1 mg/kg (each drug),47.4 ± 2.4 U/L
same,Bilirubin,[1]; oral 1 mg/kg (each drug),0.3 ± 0.01 mg/dL
same,Liver/b.w.,[1]; oral 1 mg/kg (each drug),3.8 ± 0.3%
same,ALP,[1]; oral 3 mg/kg (each drug),21.8 ± 5.2 U/dl
same,ALT,[1]; oral 3 mg/kg (each drug),41.9 ± 5.3 U/L
same,Bilirubin,[1]; oral 3 mg/kg (each drug),0.2 ± 0.01 mg/dL
same,Liver/b.w.,[1]; oral 3 mg/kg (each drug),2.9 ± 0.2%
same,increase of FXR mRNA,[2],1.8 fold
same,increase of SHP mRNA,[2],4 fold
same,increase in PPARγ mRNA and protein,"[3]; primary HSCs grown seven days, 1 μM",40 fold
"CC(C)c1onc(-c2c(Cl)cccc2Cl)c1COc1ccc(/C=C/c2cccc(C(=O)O)c2)c(Cl)c1 [GW4064, reference compound]",downregulation of PPAR-γ caused by HSCs activation,[3]; primary HSCs,prevented the downregulation
CCc1ccc(CCOc2ccc(CC3SC(=O)NC3=O)cc2)nc1 (centres unmarked) [pioglitazone],combined incidence of edema,[4]; 15 or 30 mg/day in combination with insulin (Rubin et al. 1999),15.3%
CN(CCOc1ccc(CC2SC(=O)NC2=O)cc1)c1ccccn1 (centres unmarked) [rosiglitazone],edema,[5],signs of increasing peripheral edema
same,weight gained since initiating TZD therapy,[5],6 kg
same,incidence of edema,[4]; 4 mg/day in combination with insulin (Raskin et al. 2001),13.1%
same,incidence of edema,[4]; 8 mg/day in combination with insulin (Raskin et al. 2001),about 16.2%

# — US20060252670A1, “Method of reducing drug-induced adverse side effects in a patient” (Intercept Pharmaceuticals Inc., priority 2004, published 2006)
